Experimental data taken from PubChem BioAssay (NCI).
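Where inhibition never reached the appropriate level, the endpoint shown equals the highest concentration tested. Otherwise, values were interpolated linearly from a five-concentration, 48-hour dose response in 96-well plates. TGI: total growth inhibition.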

What was measured:
Assay in all cases: NCI-60 cell line screen, 48 h
786-0 renal = test system: 786-0 renal
A498 renal = test system: A498 renal
A549 NSCLC = test system: A549 NSCLC
ACHN renal = test system: ACHN renal
BT-549 breast = test system: BT-549 breast
CAKI-1 renal = test system: CAKI-1 renal
CCRF-CEM leukemia = test system: CCRF-CEM leukemia
COLO 205 colon = test system: COLO 205 colon
DU-145 prostate = test system: DU-145 prostate
EKVX NSCLC = test system: EKVX NSCLC
HCC-2998 colon = test system: HCC-2998 colon
HCT-116 colon = test system: HCT-116 colon
HCT-15 colon = test system: HCT-15 colon
HOP-62 NSCLC = test system: HOP-62 NSCLC
HT29 colon = test system: HT29 colon
IGROV1 ovarian = test system: IGROV1 ovarian
K-562 leukemia = test system: K-562 leukemia
KM12 colon = test system: KM12 colon
M14 melanoma = test system: M14 melanoma
MALME-3M melanoma = test system: MALME-3M melanoma
MCF7 breast = test system: MCF7 breast
MDA-MB-231 breast = test system: MDA-MB-231 breast
MDA-MB-435 = test system: MDA-MB-435
MDA-N = test system: MDA-N
MOLT-4 leukemia = test system: MOLT-4 leukemia
NCI-H460 lung = test system: NCI-H460 lung
NCI/ADR-RES ovarian = test system: NCI/ADR-RES ovarian
OVCAR-3 ovarian = test system: OVCAR-3 ovarian
OVCAR-5 ovarian = test system: OVCAR-5 ovarian
OVCAR-8 ovarian = test system: OVCAR-8 ovarian
PC-3 prostate = test system: PC-3 prostate
RPMI-8226 leukemia = test system: RPMI-8226 leukemia
RXF 393 renal = test system: RXF 393 renal
SF-268 CNS = test system: SF-268 CNS
SF-539 CNS = test system: SF-539 CNS
SK-MEL-2 melanoma = test system: SK-MEL-2 melanoma
SK-MEL-28 melanoma = test system: SK-MEL-28 melanoma
SK-MEL-5 melanoma = test system: SK-MEL-5 melanoma
SK-OV-3 ovarian = test system: SK-OV-3 ovarian
SN12C renal = test system: SN12C renal
SNB-19 CNS = test system: SNB-19 CNS
SNB-75 CNS = test system: SNB-75 CNS
SR leukemia = test system: SR leukemia
SW-620 colon = test system: SW-620 colon
T-47D breast = test system: T-47D breast
TK-10 renal = test system: TK-10 renal
U251 CNS = test system: U251 CNS
UACC-257 melanoma = test system: UACC-257 melanoma
UACC-62 melanoma = test system: UACC-62 melanoma
UO-31 renal = test system: UO-31 renal
HOP-92 NSCLC = test system: HOP-92 NSCLC
LOX IMVI melanoma = test system: LOX IMVI melanoma
NCI-H23 lung = test system: NCI-H23 lung
NCI-H522 lung = test system: NCI-H522 lung
OVCAR-4 ovarian = test system: OVCAR-4 ovarian
SF-295 CNS = test system: SF-295 CNS
HL-60(TB) leukemia = test system: HL-60(TB) leukemia
HS 578T breast = test system: HS 578T breast
NCI-H226 lung = test system: NCI-H226 lung

CNC(=O)C(C)C1C(=O)/C(=C(O)/C=C\C(C)=C\C(C)C2OC3(C)OC(C=CC34CO4)C2C)C(=O)N1C1CCC(O)C(C)O1 (stereo unspecified)
TGI (786-0 renal): > 100 µM | TGI (A498 renal): > 100 µM | TGI (A549 NSCLC): > 100 µM | TGI (ACHN renal): > 100 µM | TGI (BT-549 breast): > 100 µM | TGI (CAKI-1 renal): > 100 µM | TGI (CCRF-CEM leukemia): > 100 µM | TGI (COLO 205 colon): > 100 µM | TGI (DU-145 prostate): > 100 µM | TGI (EKVX NSCLC): > 100 µM | TGI (HCC-2998 colon): > 100 µM | TGI (HCT-116 colon): > 100 µM | TGI (HCT-15 colon): > 100 µM | TGI (HOP-62 NSCLC): > 100 µM | TGI (HT29 colon): > 100 µM | TGI (IGROV1 ovarian): > 100 µM | TGI (K-562 leukemia): > 100 µM | TGI (KM12 colon): > 100 µM | TGI (M14 melanoma): > 100 µM | TGI (MALME-3M melanoma): > 100 µM | TGI (MCF7 breast): > 100 µM | TGI (MDA-MB-231 breast): > 100 µM | TGI (MDA-MB-435): > 100 µM | TGI (MDA-N): > 100 µM | TGI (MOLT-4 leukemia): > 100 µM | TGI (NCI-H460 lung): > 100 µM | TGI (NCI/ADR-RES ovarian): > 100 µM | TGI (OVCAR-3 ovarian): > 100 µM | TGI (OVCAR-5 ovarian): > 100 µM | TGI (OVCAR-8 ovarian): > 100 µM | TGI (PC-3 prostate): > 100 µM | TGI (RPMI-8226 leukemia): > 100 µM | TGI (RXF 393 renal): > 100 µM | TGI (SF-268 CNS): > 100 µM | TGI (SF-539 CNS): > 100 µM | TGI (SK-MEL-2 melanoma): > 100 µM | TGI (SK-MEL-28 melanoma): > 100 µM | TGI (SK-MEL-5 melanoma): > 100 µM | TGI (SK-OV-3 ovarian): > 100 µM | TGI (SN12C renal): > 100 µM | TGI (SNB-19 CNS): > 100 µM | TGI (SNB-75 CNS): > 100 µM | TGI (SR leukemia): > 100 µM | TGI (SW-620 colon): > 100 µM | TGI (T-47D breast): > 100 µM | TGI (TK-10 renal): > 100 µM | TGI (U251 CNS): > 100 µM | TGI (UACC-257 melanoma): > 100 µM | TGI (UACC-62 melanoma): > 100 µM | TGI (UO-31 renal): > 100 µM

CCOC(=O)N/N=C(\Cc1ccccc1)OCC
TGI (786-0 renal): > 100 µM | TGI (A549 NSCLC): > 100 µM | TGI (ACHN renal): > 100 µM | TGI (BT-549 breast): > 100 µM | TGI (CCRF-CEM leukemia): > 100 µM | TGI (COLO 205 colon): > 100 µM | TGI (DU-145 prostate): > 100 µM | TGI (EKVX NSCLC): > 100 µM | TGI (HCC-2998 colon): > 100 µM | TGI (HCT-116 colon): > 100 µM | TGI (HCT-15 colon): > 100 µM | TGI (HOP-62 NSCLC): > 100 µM | TGI (HOP-92 NSCLC): > 100 µM | TGI (HT29 colon): > 100 µM | TGI (IGROV1 ovarian): > 100 µM | TGI (K-562 leukemia): > 100 µM | TGI (KM12 colon): > 100 µM | TGI (LOX IMVI melanoma): > 100 µM | TGI (M14 melanoma): > 100 µM | TGI (MCF7 breast): > 100 µM | TGI (MDA-MB-231 breast): > 100 µM | TGI (MDA-MB-435): > 100 µM | TGI (MDA-N): > 100 µM | TGI (MOLT-4 leukemia): > 100 µM | TGI (NCI-H23 lung): > 100 µM | TGI (NCI-H522 lung): > 100 µM | TGI (NCI/ADR-RES ovarian): > 100 µM | TGI (OVCAR-3 ovarian): > 100 µM | TGI (OVCAR-4 ovarian): > 100 µM | TGI (OVCAR-5 ovarian): > 100 µM | TGI (OVCAR-8 ovarian): > 100 µM | TGI (PC-3 prostate): > 100 µM | TGI (RPMI-8226 leukemia): > 100 µM | TGI (RXF 393 renal): > 100 µM | TGI (SF-268 CNS): > 100 µM | TGI (SF-295 CNS): > 100 µM | TGI (SF-539 CNS): > 100 µM | TGI (SK-MEL-2 melanoma): > 100 µM | TGI (SK-MEL-5 melanoma): > 100 µM | TGI (SK-OV-3 ovarian): > 100 µM | TGI (SN12C renal): > 100 µM | TGI (SNB-19 CNS): > 100 µM | TGI (SNB-75 CNS): > 100 µM | TGI (SR leukemia): > 100 µM | TGI (SW-620 colon): > 100 µM | TGI (TK-10 renal): > 100 µM | TGI (U251 CNS): > 100 µM | TGI (UACC-257 melanoma): > 100 µM | TGI (UACC-62 melanoma): > 100 µM | TGI (UO-31 renal): > 100 µM

c1ccc([P+](CCN2Cc3ccccc3C2)(c2ccccc2)c2ccccc2)cc1
TGI (786-0 renal): 44.4 µM | TGI (A498 renal): 55.6 µM | TGI (A549 NSCLC): > 100 µM | TGI (ACHN renal): 23.1 µM | TGI (CAKI-1 renal): > 100 µM | TGI (CCRF-CEM leukemia): 40.5 µM | TGI (COLO 205 colon): 3.45 µM | TGI (DU-145 prostate): 45.6 µM | TGI (EKVX NSCLC): > 100 µM | TGI (HCC-2998 colon): 15.9 µM | TGI (HCT-116 colon): 20.9 µM | TGI (HCT-15 colon): 36.2 µM | TGI (HL-60(TB) leukemia): 10.5 µM | TGI (HOP-62 NSCLC): 45.3 µM | TGI (HOP-92 NSCLC): 6.41 µM | TGI (HS 578T breast): > 100 µM | TGI (HT29 colon): 22.2 µM | TGI (IGROV1 ovarian): 5.87 µM | TGI (K-562 leukemia): > 100 µM | TGI (KM12 colon): 16 µM | TGI (LOX IMVI melanoma): 33 µM | TGI (M14 melanoma): 23 µM | TGI (MALME-3M melanoma): 25.1 µM | TGI (MCF7 breast): 14.4 µM | TGI (MDA-MB-231 breast): 16.2 µM | TGI (MDA-MB-435): 13.7 µM | TGI (MDA-N): 14.3 µM | TGI (MOLT-4 leukemia): > 100 µM | TGI (NCI-H226 lung): 31.7 µM | TGI (NCI-H23 lung): > 100 µM | TGI (NCI-H460 lung): > 100 µM | TGI (NCI-H522 lung): 12.2 µM | TGI (NCI/ADR-RES ovarian): > 100 µM | TGI (OVCAR-3 ovarian): 18.1 µM | TGI (OVCAR-5 ovarian): 57 µM | TGI (OVCAR-8 ovarian): 7.95 µM | TGI (PC-3 prostate): > 100 µM | TGI (RXF 393 renal): 22.3 µM | TGI (SF-268 CNS): 30.1 µM | TGI (SF-295 CNS): 83.9 µM | TGI (SF-539 CNS): 24.4 µM | TGI (SK-MEL-2 melanoma): 5.41 µM | TGI (SK-MEL-28 melanoma): 9.6 µM | TGI (SK-MEL-5 melanoma): 11.3 µM | TGI (SK-OV-3 ovarian): 66.2 µM | TGI (SN12C renal): 32.8 µM | TGI (SNB-19 CNS): > 100 µM | TGI (SNB-75 CNS): 8.71 µM | TGI (SR leukemia): 52 µM | TGI (SW-620 colon): 25.8 µM | TGI (T-47D breast): 24.3 µM | TGI (TK-10 renal): 41.5 µM | TGI (U251 CNS): 19.5 µM | TGI (UACC-257 melanoma): 12.4 µM | TGI (UACC-62 melanoma): 13.1 µM | TGI (UO-31 renal): 34.6 µM
